Source: ChEMBL document CHEMBL1145961, “Metabolism-directed optimization of 3-aminopyrazinone acetamide thrombin inhibitors. Development of an orally bioavailable series containing P1 and P3 pyridines” (J Med Chem, 2003)

Tests used:
[1] = Oral bioavailability in Rhesus monkey (dose 5 mg/kg); type: ADME, organism-based, Macaca mulatta; conditions: in vivo
[2] = Maximum plasma concentration in rat after peroral administration of 10 mg/kg dose of compound; type: ADME, organism-based; set-up: dose 10 mg/kg, route oral; conditions: po
in vivo = conditions: dog, iv, 1 mg/kg
[3] = Maximum plasma concentration in dog after administration of 1 mg/kg dose of compound; type: ADME, organism-based, Canis lupus familiaris; set-up: dose 1 mg/kg
[4] = Plasma half-life (5 mg/kg) in rhesus monkey after intravenous administration; type: ADME, organism-based, Macaca mulatta
[5] = Maximum plasma concentration in dog after peroral administration of 1 mg/kg dose of compound; type: ADME, organism-based, Canis lupus familiaris; set-up: dose 1 mg/kg, route oral; conditions: po
[6] = (§1) Plasma half-life in dog after peroral administration was evaluated; type: ADME, organism-based, Canis lupus familiaris; conditions: plasma, po
Serine protease 1 = Serine protease 1 (Homo sapiens, UniProt P07477); assay: Inhibitory constant against human trypsin
Serine protease 1, sequence (P07477 whole entry): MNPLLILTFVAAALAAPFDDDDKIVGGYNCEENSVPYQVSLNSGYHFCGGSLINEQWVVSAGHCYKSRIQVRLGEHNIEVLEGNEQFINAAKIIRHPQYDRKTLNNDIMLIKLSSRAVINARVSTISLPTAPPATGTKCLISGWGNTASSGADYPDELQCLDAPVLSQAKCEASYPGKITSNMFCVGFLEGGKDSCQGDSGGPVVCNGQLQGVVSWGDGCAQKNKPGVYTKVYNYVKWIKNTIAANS

[7] = Concentration required to double the activated partial thromboplastin time (2x APTT) in human plasma; type: functional
[8] = Maximum plasma concentration in rhesus monkey after peroral administration of 5 mg/kg dose of compound; type: ADME, organism-based, Macaca mulatta; set-up: dose 5 mg/kg, route oral; conditions: po
[9] = Oral bioavailability in rat (dose 10 mg/kg); type: ADME, organism-based; conditions: in vivo
[10] = Plasma half-life ([…] mg/kg) in rat after intravenous administration; type: ADME, organism-based; conditions: 10 mg/kg
[11] = Oral bioavailability in dog after administration of 1 mg/kg of compound; type: ADME, organism-based, Canis lupus familiaris; conditions: in vivo
Prothrombin = Prothrombin (Homo sapiens, UniProt P00734); assay: Inhibitory constant against thrombin (IIa)
[12] = Maximum plasma concentration in dog after administration of 0.7 mg/kg dose of compound; type: ADME, organism-based, Canis lupus familiaris; set-up: dose 0.7 mg/kg
[13] = Maximum plasma concentration in dog after administration of 0.5 mg/kg dose of compound; type: ADME, organism-based, Canis lupus familiaris; set-up: dose 0.5 mg/kg
[14] = Plasma half-life (5 mg/kg) in african green monkey after intravenous administration; type: ADME, organism-based; conditions: chlorocebus aethiops
[15] = Oral bioavailability in african green monkey after administration of 5 mg/kg of compound; type: ADME, organism-based; conditions: chlorocebus aethiops, in vivo
[16] = Maximum plasma concentration in dog after peroral administration of 0.65 mg/kg dose of compound; type: ADME, organism-based, Canis lupus familiaris; set-up: dose 0.65 mg/kg, route oral; conditions: po
[17] = Oral bioavailability in dog after administration of 0.65 mg/kg of compound; type: ADME, organism-based, Canis lupus familiaris; conditions: in vivo
Canis familiaris = assay: as §1; type: ADME, organism-based, Canis lupus familiaris; conditions: in vivo, po
[18] = Maximum plasma concentration in african green monkey after peroral administration of 5 mg/kg dose of compound; type: ADME, organism-based; set-up: dose 5 mg/kg, route oral; conditions: chlorocebus aethiops, po
[19] = Plasma half-life (0.65 mg/kg) dog after intravenous administration; type: ADME, organism-based, Canis lupus familiaris

SMILES	Cmax [3]	half-life [6]	Ki (Serine protease 1)	2x aPTT [7]	Ki (Prothrombin)	also measured
Cc1cnc(NCC(F)(F)c2ccccn2)c(=O)n1CC(=O)NCc1ncccc1F	5640 nM	3.5 h	252 µM	0.67 µM		bioavailability [1]: 12%; Cmax [2]: 2160 nM; half-life (in vivo): 3.5 h; half-life [4]: 0.99 h; Cmax [5]: 5640 nM; Cmax [8]: 1100 nM; bioavailability [9]: 55%; half-life [10]: 0.57 h; bioavailability [11]: 87%
O=C(Cn1c(C(F)(F)F)cnc(NCC(F)(F)c2ccccn2)c1=O)NCc1ncccc1F			136 µM		0.044 µM	
Cc1ccnc(CNC(=O)Cn2c(C)cnc(NCC(F)(F)c3ccccc3)c2=O)c1			270 µM	1.7 µM	0.0048 µM	
Cc1ccnc(CNC(=O)Cn2c(C)cnc(NCC(F)(F)c3ccccn3)c2=O)c1	4120 nM	2.4 h	431 µM	0.59 µM	0.0028 µM	
Cc1ccnc(CNC(=O)Cn2c(Cl)cnc(NCC(F)(F)c3ccccn3)c2=O)c1F	670 nM	3.2 h	80 µM	0.48 µM	0.0009 µM	
Cc1ccnc(CNC(=O)Cn2c(Cl)cnc(NCC(F)(F)c3ccccn3)c2=O)c1	2320 nM	2.1 h	429 µM	0.91 µM	0.0053 µM	
Cc1nc(N)ccc1CNC(=O)Cn1c(C)cnc(NCC(F)(F)c2ccccc2)c1=O			0.855 µM			
Cc1nc(N)ccc1CNC(=O)Cn1c(C)cnc(NCC(C)c2ccccc2)c1=O (centres undefined)			1.6 µM	0.61 µM	0.0011 µM	
O=C(Cn1ccnc(NCC(F)(F)c2ccccn2)c1=O)NCc1ncccc1F			> 1000 µM		0.14 µM	
O=C(Cn1c(Cl)cnc(NCC(F)(F)c2ccccn2)c1=O)NCc1ncccc1Cl	62 nM	5.7 h	567 µM	1.41 µM	0.0079 µM	
Cc1nc(N)ccc1CNC(=O)Cn1c(C)cnc(NCCc2cccnc2)c1=O			3.8 µM	0.28 µM	0.00054 µM	
N#Cc1cnc(NCC(F)(F)c2ccccn2)c(=O)n1CC(=O)NCc1ncccc1F	1170 nM	9.7 h	213 µM	0.41 µM	0.0023 µM	
Cc1cnc(NCCc2ccccc2)c(=O)n1CC(=O)NCc1ccccn1			> 1000 µM		0.39 µM	
Cc1nc(N)ccc1CNC(=O)Cn1c(C)cnc(NCCc2ccccn2)c1=O			3.6 µM	0.31 µM	0.00027 µM	
Cc1nc(N)ccc1CNC(=O)Cn1c(C)cnc(NCC(C)(C)c2ccccc2)c1=O			0.8 µM	0.5 µM	0.0011 µM	
Cc1nc(N)ccc1CNC(=O)Cn1c(C)cnc(NCC(F)(F)c2ccccn2)c1=O			0.8 µM	0.2 µM		
Cc1nc(N)ccc1CNC(=O)Cn1c(C)cnc(NCCc2ccncc2)c1=O			4.6 µM	0.45 µM	0.0016 µM	
Cc1ccnc(CNC(=O)Cn2c(C)cnc(NCC(F)(F)c3ccccn3)c2=O)c1F		1 h	118 µM	0.48 µM		Cmax [12]: 1660 nM
Cc1cnc(NCC(F)(F)c2ccccn2)c(=O)n1CC(=O)NCc1ccccn1			> 1000 µM	2.2 µM	0.015 µM	
Cc1cnc(NCC(F)(F)c2ccccc2)c(=O)n1CC(=O)NCc1ncccc1F	3730 nM	2 h	501 µM	1.26 µM	0.0068 µM	
Cc1cnc(NCCc2ccccc2)c(=O)n1CC(=O)NCc1cccnc1			898 µM		1.2 µM	
Cc1ncccc1CNC(=O)Cn1c(C)cnc(NCCc2ccccc2)c1=O			> 100 µM		0.28 µM	
Cc1ccnc(CNC(=O)Cn2c(C)cnc(NCC(F)(F)c3ccccc3)c2=O)c1F	1830 nM	0.7 h	40 µM	0.72 µM	0.0012 µM	
COc1ccnc(CNC(=O)Cn2c(Cl)cnc(NCC(F)(F)c3ccccn3)c2=O)c1		2 h	665 µM	0.71 µM	0.0036 µM	Cmax [13]: 530 nM
COc1cccnc1CNC(=O)Cn1c(Cl)cnc(NCC(F)(F)c2ccccn2)c1=O	900 nM	2.3 h	706 µM	2.19 µM	0.015 µM	
Cc1cnc(NCCc2ccccc2)c(=O)n1CC(=O)NCc1ccncc1			251 µM		17 µM	
Cc1cnc(NCC(F)(F)c2ccccc2)c(=O)n1CC(=O)NCc1cc(Cl)ccn1			47 µM	0.89 µM	0.0013 µM	
Cc1ccnc(CNC(=O)Cn2c(C#N)cnc(NCC(F)(F)c3ccccn3)c2=O)c1F	1700 nM	2.4 h	61 µM	0.31 µM	0.0004 µM	
O=C(Cn1c(Cl)cnc(NCC(F)(F)c2ccccn2)c1=O)NCc1ncccc1F [DPOC-4088]	1380 nM		202 µM	0.78 µM	0.0052 µM	half-life [14]: 1.6 h; bioavailability [1]: 5.2%; Cmax [2]: 1060 nM; bioavailability [15]: 66%; Cmax [16]: 1160 nM; bioavailability [17]: 66%; half-life [4]: 0.73 h; T1/2 (Canis familiaris): 6.6 h; Cmax [18]: 1710 nM; Cmax [8]: 310 nM; bioavailability [9]: 23%; half-life [10]: 0.42 h; half-life [19]: 4.48 h
Cc1nc(N)ccc1CNC(=O)Cn1c(C)cnc(NCCc2ccccc2)c1=O [L-375378]				0.41 µM		
